pEC50: −log10 of the molar value. Activity calls are given as the source filed them. The rule behind the calls is not given here.
Tests used:
[1] = system: Human respirovirus 3; test: Antiviral activity against human parainfluenza virus 3; assay type: functional, organism-based
[2] = system: Feline coronavirus; test: Antiviral activity against feline coronavirus; assay type: functional, organism-based
[3] = system: Coxsackievirus B4; test: Antiviral activity against human coxsackievirus B4; assay type: functional, organism-based
[4] = system: Reovirus sp.; test: Antiviral activity against reovirus; assay type: functional, organism-based
[5] = system: Influenza A virus H3N2; test: Antiviral activity against influenza A virus H3N2; assay type: functional, organism-based
[6] = system: Respiratory syncytial virus; test: Antiviral activity against RSV; assay type: functional, organism-based
[7] = system: Human immunodeficiency virus 1; test: Antiviral activity against HIV1 3B infected in human CEM cells assessed as reduction in virus-induced cytopathicity after 4 to 5 days by microscopy based syncytium cell formation assay; assay type: functional, organism-based, CCRF-CEM; conditions: Human immunodeficiency virus 1, 3B, CCRF-CEM; read-out: EC50
[8] = system: Vesicular stomatitis virus; test: Antiviral activity against vesicular stomatitis virus; assay type: functional, organism-based
[9] = system: Influenza A virus; test: Antiviral activity against influenza A virus (H1N1); assay type: functional, organism-based
[10] = system: Felid alphaherpesvirus 1; test: Antiviral activity against feline herpesvirus; assay type: functional, organism-based
[11] = system: Sindbis virus; test: Antiviral activity against sindbis virus; assay type: functional, organism-based
[12] = Cytotoxicity against human Huh5-2 cells after 72 hrs by MTS assay; assay type: cell-based, Huh-5-2
[13] = system: Vaccinia virus; test: Antiviral activity against vaccinia virus; assay type: functional, organism-based; conditions: Orthopoxvirus vaccinia
[14] = system: Hepatitis C virus; test: Antiviral activity against HCV genotype 1b I389luc-ubi-neo/NS3-3'/5.1 replicons infected in human Huh5-2 HCV subgenomic replicon-containing cells assessed as reduction in virus replication after 3 days by luciferase reporter gene assay; assay type: functional, Hepacivirus hominis; conditions: Hepatitis C virus, genotype 1b, Huh-5-2, 72 h; for pEC50: read-out: EC50
[15] = system: Punta Toro virus; test: Antiviral activity against punta toro virus; assay type: functional, organism-based
[16] = Cytotoxicity against human CEM cells assessed as inhibition of cell proliferation; assay type: cell-based; conditions: CEM cells (CCRF-CEM)
[17] = system: Human immunodeficiency virus 2; test: Antiviral activity against HIV2 ROD infected in human CEM cells assessed as reduction in virus-induced cytopathicity after 4 to 5 days by microscopy based syncytium cell formation assay; assay type: functional, organism-based, ISOLATE ROD, CCRF-CEM; conditions: Human immunodeficiency virus 2, ISOLATE ROD, CCRF-CEM; read-out: EC50
[18] = system: Chikungunya virus; test: Antiviral activity against chikungunya virus; assay type: functional

Row | SMILES | Activity [1] | Activity [2] | Activity [3] | Activity [4] | Activity [5] | Activity [6] | pEC50 [7] | Activity [8] | Activity [9] | Activity [10] | Activity [11] | CC50 at 72 h [12] [µM] | Activity [13] | EC90 [14] [µM] | pEC50 [14] | Activity [15] | CC50 [16] [µM] | pEC50 [17] | Activity [18]
1 | O=C(NCCCCCCNC(=O)c1cc(O)c(O)c(O)c1)c1cc(O)c(O)c(O)c1 | inactive | inactive | inactive | inactive | inactive | inactive | < 5.00 | inactive | inactive | inactive | inactive | 24 | inactive | > 24 | 4.96 | inactive | 72 | < 5.00 | inactive
2 | COc1ccc(C(=O)NCCCCCCCCCCCCNC(=O)c2ccc(OC)c(OC)c2OC)c(OC)c1OC | – | – | – | – | – | – | – | – | – | – | – | 5.4 | – | – | < 5.46 | – | – | – | –
3 | O=C(NCCCCCCCCNC(=O)c1ccc(O)c(O)c1O)c1ccc(O)c(O)c1O | inactive | inactive | inactive | inactive | inactive | inactive | < 4.30 | inactive | inactive | inactive | inactive | 34 | inactive | – | 4.60 | inactive | 82 | < 4.30 | inactive
4 | O=C(NCCCCCCNC(=O)c1ccc(O)c(O)c1O)c1ccc(O)c(O)c1O | inactive | inactive | inactive | inactive | inactive | inactive | < 4.30 | inactive | inactive | inactive | inactive | 32 | inactive | – | 4.85 | inactive | 102 | < 4.30 | inactive
5 | O=C(NCCN(CCNC(=O)c1cc(O)c(O)c(O)c1)CCNC(=O)c1cc(O)c(O)c(O)c1)c1cc(O)c(O)c(O)c1 | inactive | inactive | inactive | inactive | inactive | inactive | 5.00 | inactive | inactive | inactive | inactive | > 2.9 | inactive | > 2.9 | < 5.54 | inactive | 54 | – | inactive
6 | O=C(NCCCCCCCCNC(=O)c1cc(O)c(O)c(O)c1)c1cc(O)c(O)c(O)c1 | inactive | inactive | inactive | inactive | inactive | inactive | < 5.00 | inactive | inactive | inactive | inactive | > 50 | inactive | > 50 | 4.64 | inactive | 51 | – | inactive
7 | O=C(NCCCCCCCCCCCCNC(=O)c1ccccc1O)c1ccccc1O | inactive | inactive | inactive | inactive | inactive | inactive | < 3.60 | inactive | inactive | inactive | inactive | > 6.7 | inactive | > 6.7 | 5.33 | inactive | 248 | < 3.60 | inactive
8 | O=C(NCCCCCCCCCCCCNC(=O)c1cccc(O)c1O)c1cccc(O)c1O | inactive | inactive | inactive | inactive | inactive | inactive | < 5.70 | inactive | inactive | inactive | inactive | 108 | inactive | 4.8 | 5.70 | inactive | 4.8 | < 5.70 | inactive
9 | CCOC(=O)c1cc(O)c(O)c(O)c1 [ETHYLGALLATE] | inactive | inactive | inactive | inactive | inactive | inactive | < 5.00 | inactive | inactive | inactive | inactive | 45 | inactive | > 45 | 4.72 | inactive | 23 | < 5.00 | inactive
10 | CCC[C@H](NC(=O)[C@@H]1[C@H]2CCC[C@H]2CN1C(=O)[C@@H](NC(=O)[C@@H](NC(=O)c1cnccn1)C1CCCCC1)C(C)(C)C)C(=O)C(=O)NC1CC1 [TELAPREVIR] | – | – | – | – | – | – | – | – | – | – | – | 47 | – | – | 5.55 | – | – | – | –
11 | O=C(NCCCCCCCCCCNC(=O)c1ccc(O)c(O)c1O)c1ccc(O)c(O)c1O | inactive | inactive | inactive | inactive | inactive | inactive | < 4.30 | inactive | inactive | inactive | inactive | > 100 | inactive | – | 4.96 | inactive | 100 | < 4.30 | inactive
12 | O=C(OCCCCCCCCOC(=O)c1cc(O)c(O)c(O)c1)c1cc(O)c(O)c(O)c1 | inactive | inactive | inactive | inactive | inactive | inactive | < 5.00 | inactive | inactive | inactive | inactive | 80 | inactive | 55 | 4.77 | inactive | 13 | < 5.00 | inactive
13 | O=C(OCCCCOC(=O)c1cc(O)c(O)c(O)c1)c1cc(O)c(O)c(O)c1 | inactive | inactive | inactive | inactive | inactive | inactive | < 5.00 | inactive | inactive | inactive | inactive | > 50 | inactive | > 50 | 4.41 | inactive | 21 | < 5.00 | inactive
14 | O=C(NCCCCNC(=O)c1ccccc1O)c1ccccc1O | inactive | inactive | inactive | inactive | inactive | inactive | < 5.00 | inactive | inactive | inactive | inactive | > 49 | inactive | – | 4.96 | inactive | 35 | – | inactive
15 | O=C(NCCN(CCNC(=O)c1cc(O)c(O)c(O)c1)C(=O)c1cc(O)c(O)c(O)c1)c1cc(O)c(O)c(O)c1 | inactive | inactive | inactive | inactive | inactive | inactive | < 5.00 | inactive | inactive | inactive | inactive | – | inactive | – | – | inactive | 34 | < 5.00 | inactive

Source: ChEMBL document CHEMBL3407452, “Linear and branched alkyl-esters and amides of gallic acid and other (mono-, di- and tri-) hydroxy benzoyl derivatives as promising anti-HCV inhibitors” (Eur J Med Chem, 2015)
